This is an account of results in PubChem BioAssay (NCI).

Among the test systems are SW-620 colon; HS 578T breast; RPMI-8226 leukemia; UO-31 renal; NCI-H23 lung; MCF7 breast; NCI-H226 lung; KM12 colon; T-47D breast; COLO 205 colon.
Test in all cases: NCI-60 cell line screen, 48 h

The structures appear in SMILES notation.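 Interpolation was linear, between the two tested concentrations surrounding the appropriate level; five concentrations were tested over 48 hours in 96-well plates. The concentration for 50% growth inhibition is given as GI50. TGI: total growth inhibition.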

`O=S(=O)(NC1=NCCN1C(=S)SN1CCn2c1nsc2=S)c1cccc2ccccc12`: the GI50 with SW-620 colon is 33.2 µM; in the experiment on HS 578T breast, 25.5 µM; in the experiment with RPMI-8226 leukemia, 3.7 µM; in the experiment on UO-31 renal, 26.6 µM; in the experiment with NCI-H23 lung it was 20.9 µM; in the experiment on MCF7 breast, 7.27 µM. Moreover, the GI50 with NCI-H226 lung was 30.6 µM; in the experiment with KM12 colon, 17.3 µM; in the experiment with T-47D breast it was 20.2 µM; in the experiment on COLO 205 colon, 26.8 µM. For the same molecule, the TGI with SW-620 colon was above 100 µM; in the experiment with HS 578T breast it was above 100 µM; in the experiment with RPMI-8226 leukemia it was 67.8 µM; in the experiment on UO-31 renal it was above 100 µM; with NCI-H23 lung, 80.9 µM; with MCF7 breast, 58 µM. Besides, the TGI in the experiment on NCI-H226 lung is above 100 µM; in the experiment with KM12 colon, 41.4 µM; in the experiment on T-47D breast, above 100 µM; in the experiment on COLO 205 colon, above 100 µM.

For `CCNc1cc(-c2cccc(OC(F)(F)F)c2)nc2ccc(N3CCCC3)cc12`, the GI50 with SW-620 colon is 1.6 µM; with HS 578T breast it was 1.72 µM; in the experiment on RPMI-8226 leukemia, 1.34 µM; in the experiment with UO-31 renal, 1.36 µM; with NCI-H23 lung, 1.84 µM; in the experiment on MCF7 breast, 1.84 µM. Moreover, the GI50 with NCI-H226 lung was 1.67 µM; in the experiment on KM12 colon it was 1.97 µM; in the experiment on T-47D breast, 2.11 µM; in the experiment with COLO 205 colon, 1.8 µM. For the same molecule, the TGI with SW-620 colon amounted to 3.47 µM; in the experiment with HS 578T breast it was 3.96 µM; in the experiment with RPMI-8226 leukemia it was 3.92 µM; in the experiment on UO-31 renal, 2.71 µM; in the experiment with NCI-H23 lung it was 4.47 µM; in the experiment on MCF7 breast it was 6.54 µM. Further, the TGI was determined as 4.53 µM with NCI-H226 lung, 4.77 µM with KM12 colon, 7.06 µM with T-47D breast and 4.21 µM in the experiment on COLO 205 colon.

`C=CCNc1nc2c(s1)C(=O)c1ccccc1C2=O`: the TGI in the experiment on SW-620 colon is 32.4 µM; in the experiment on HS 578T breast, above 100 µM; in the experiment on RPMI-8226 leukemia it was 17.4 µM; with UO-31 renal, 26.1 µM; in the experiment with NCI-H23 lung, 21.8 µM; with MCF7 breast, 24.4 µM. Besides, the TGI in the experiment on NCI-H226 lung came to 40.1 µM; with KM12 colon, 28.1 µM; with T-47D breast it was 68.3 µM; in the experiment with COLO 205 colon it was 41.2 µM.

As for `NCCSSCCN`, the TGI with SW-620 colon, in the experiment on HS 578T breast, with RPMI-8226 leukemia, with UO-31 renal, with NCI-H23 lung and in the experiment on MCF7 breast was above 100 µM each time. The TGI in the experiment on NCI-H226 lung, with KM12 colon, with T-47D breast and in the experiment with COLO 205 colon was above 100 µM throughout.

As to `COC(=O)c1cc2c3ccccc3n3c(=O)c4cc5ccc(N(S(=O)(=O)c6ccc(C)cc6)S(=O)(=O)c6ccc(C)cc6)cc5nc4c(n1)c23`, the GI50 is above 100 µM in the experiment with SW-620 colon; 29.3 µM in the experiment with HS 578T breast; 43.7 µM in the experiment with RPMI-8226 leukemia; above 100 µM with UO-31 renal; 36.6 µM with NCI-H23 lung; above 100 µM with MCF7 breast. For the same molecule, the GI50 in the experiment with NCI-H226 lung was 33.8 µM; with KM12 colon, above 100 µM; with T-47D breast, above 100 µM; in the experiment with COLO 205 colon, above 100 µM. Also, the TGI with SW-620 colon, in the experiment on HS 578T breast, in the experiment on RPMI-8226 leukemia, with UO-31 renal, with NCI-H23 lung and in the experiment with MCF7 breast was above 100 µM throughout. In addition, the TGI in the experiment with NCI-H226 lung, in the experiment on KM12 colon, in the experiment with T-47D breast and in the experiment on COLO 205 colon was above 100 µM each time.

On to `FC(F)(c1ccc2ncccc2c1)c1nnc2ccc(-c3ccncc3)nn12`, for which the GI50 in the experiment with SW-620 colon was above 100 µM; in the experiment on HS 578T breast, 22.3 µM; in the experiment on RPMI-8226 leukemia, 53.3 µM; with UO-31 renal it was 19.2 µM; with NCI-H23 lung, above 100 µM; in the experiment on MCF7 breast, 95.3 µM. In addition, the GI50 in the experiment on NCI-H226 lung was 45.9 µM; in the experiment on KM12 colon it was 69.7 µM; in the experiment with T-47D breast it was 61.9 µM; with COLO 205 colon it was 91.1 µM. Also, the TGI in the experiment on SW-620 colon, in the experiment on HS 578T breast, in the experiment with RPMI-8226 leukemia, with UO-31 renal, in the experiment with NCI-H23 lung and with MCF7 breast was above 100 µM in each case. In addition, the TGI with NCI-H226 lung, in the experiment on KM12 colon, with T-47D breast and in the experiment with COLO 205 colon was above 100 µM in each case.

Turning to `COc1ccc(C2OC(=O)c3ccc4ccccc4c32)c(C)c1` (stereo not given), the TGI was above 72.9 µM in the experiment on SW-620 colon; 45.2 µM in the experiment on HS 578T breast; above 65.4 µM in the experiment on RPMI-8226 leukemia; above 83.8 µM in the experiment on UO-31 renal; 41.8 µM in the experiment with NCI-H23 lung; 29.9 µM with MCF7 breast. In addition, the TGI was 56.9 µM in the experiment on NCI-H226 lung, above 45.6 µM with KM12 colon, above 86 µM with T-47D breast and above 35.1 µM with COLO 205 colon.

Turning to `CC[C@H](Nc1ncnc2nc[nH]c12)c1nc2cccc(F)c2c(=O)n1-c1ccccc1`, the GI50 in the experiment with SW-620 colon is 79.7 µM; in the experiment on HS 578T breast, 4.12 µM; in the experiment with RPMI-8226 leukemia, 37.6 µM; in the experiment on UO-31 renal, 3.5 µM; in the experiment on NCI-H23 lung, 80.8 µM; in the experiment with MCF7 breast, 8.73 µM. The GI50 was above 65.6 µM with NCI-H226 lung, 43.7 µM in the experiment with KM12 colon, 3.76 µM in the experiment with T-47D breast and 72.8 µM in the experiment on COLO 205 colon. The TGI in the experiment on SW-620 colon is above 100 µM; with HS 578T breast, above 88.3 µM; in the experiment on RPMI-8226 leukemia it was above 100 µM; with UO-31 renal it was above 68.7 µM; in the experiment with NCI-H23 lung, above 100 µM; in the experiment on MCF7 breast it was above 100 µM. Also, the TGI with NCI-H226 lung, in the experiment on KM12 colon, with T-47D breast and with COLO 205 colon was above 100 µM in each case.
